Format in all cases: biochemical
The target of one experiment is PI3K-alpha (Homo sapiens, UniProt P42336). Briefly: PI3K-alpha fluorescence polarization assay. In general terms: Polarisation of emitted light reports the rotation of a fluorescent probe.
Another experiment deals with PI3K-gamma (Homo sapiens, UniProt P48736). Briefly: PI3K-gamma fluorescence polarization assay. In a few lines: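 Reactions in 5 mM HEPES pH 7, 2.5 mM MgCl2, 25 μM ATP with 2.5 μM diC8-PI(4,5)P2 and 5 ng enzyme, 1 h at 25° C, then EDTA quench. Product detected by FP using GST-GRP1 PH domain (100 nM) and BODIPY-TMR-IP4 tracer (5 nM); final DMSO 0.8%.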
PI3K-gamma, sequence (P48736 whole entry, species assumed, the tested form may be a part): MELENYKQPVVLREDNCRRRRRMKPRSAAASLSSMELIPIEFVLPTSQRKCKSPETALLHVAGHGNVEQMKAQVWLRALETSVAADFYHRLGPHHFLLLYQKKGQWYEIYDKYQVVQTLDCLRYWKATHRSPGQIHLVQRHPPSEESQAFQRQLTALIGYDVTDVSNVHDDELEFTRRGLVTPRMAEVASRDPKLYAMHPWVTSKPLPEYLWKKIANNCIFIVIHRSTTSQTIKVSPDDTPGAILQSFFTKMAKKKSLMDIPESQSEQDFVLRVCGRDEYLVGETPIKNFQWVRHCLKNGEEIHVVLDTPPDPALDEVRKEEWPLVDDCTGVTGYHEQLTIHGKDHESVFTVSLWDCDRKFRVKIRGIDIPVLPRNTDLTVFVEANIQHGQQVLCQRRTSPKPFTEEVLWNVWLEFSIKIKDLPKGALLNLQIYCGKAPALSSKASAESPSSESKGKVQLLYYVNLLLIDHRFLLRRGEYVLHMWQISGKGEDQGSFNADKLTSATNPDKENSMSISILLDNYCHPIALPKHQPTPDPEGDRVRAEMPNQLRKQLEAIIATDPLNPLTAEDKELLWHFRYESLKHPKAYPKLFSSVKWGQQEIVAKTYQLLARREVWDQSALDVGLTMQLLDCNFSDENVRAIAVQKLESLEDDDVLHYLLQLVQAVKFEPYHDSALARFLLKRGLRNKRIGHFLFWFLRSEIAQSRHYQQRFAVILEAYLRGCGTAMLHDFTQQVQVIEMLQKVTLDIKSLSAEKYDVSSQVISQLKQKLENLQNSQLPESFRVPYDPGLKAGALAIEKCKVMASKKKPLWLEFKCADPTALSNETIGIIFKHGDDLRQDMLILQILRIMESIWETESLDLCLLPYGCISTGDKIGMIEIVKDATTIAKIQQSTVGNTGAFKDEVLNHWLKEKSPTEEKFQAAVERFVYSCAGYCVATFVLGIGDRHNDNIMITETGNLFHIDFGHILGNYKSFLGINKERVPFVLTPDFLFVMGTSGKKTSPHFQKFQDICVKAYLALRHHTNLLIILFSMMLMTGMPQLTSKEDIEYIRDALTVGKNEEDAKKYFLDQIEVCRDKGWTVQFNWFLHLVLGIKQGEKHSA
A further experiment has as its target T1, human TOR (Homo sapiens, UniProt P42345).
T1 construct: FLAG
Briefly: mTOR enzyme assay (DELFIA, His6-S6K substrate). The following applies: read-out: mTOR Kinase Avg. IC50.

SMILES strings stand for the structures. Where two headings read alike, the source gives them in different places. Bounds are passed on as bounds.

Consider 22 compounds from patent publication US20090311217A1, “3-SUBSTITUTED-1H-INDOLE COMPOUNDS, THEIR USE AS MTOR KINASE AND PI3 KINASE INHIBITORS, AND THEIR SYNTHESES” (priority 2008, published 2009).

As a reminder, the IC50 is the concentration needed to halve the response being measured.

PI3K-alpha, sequence (P42336 whole entry, species assumed, the tested form may be a part): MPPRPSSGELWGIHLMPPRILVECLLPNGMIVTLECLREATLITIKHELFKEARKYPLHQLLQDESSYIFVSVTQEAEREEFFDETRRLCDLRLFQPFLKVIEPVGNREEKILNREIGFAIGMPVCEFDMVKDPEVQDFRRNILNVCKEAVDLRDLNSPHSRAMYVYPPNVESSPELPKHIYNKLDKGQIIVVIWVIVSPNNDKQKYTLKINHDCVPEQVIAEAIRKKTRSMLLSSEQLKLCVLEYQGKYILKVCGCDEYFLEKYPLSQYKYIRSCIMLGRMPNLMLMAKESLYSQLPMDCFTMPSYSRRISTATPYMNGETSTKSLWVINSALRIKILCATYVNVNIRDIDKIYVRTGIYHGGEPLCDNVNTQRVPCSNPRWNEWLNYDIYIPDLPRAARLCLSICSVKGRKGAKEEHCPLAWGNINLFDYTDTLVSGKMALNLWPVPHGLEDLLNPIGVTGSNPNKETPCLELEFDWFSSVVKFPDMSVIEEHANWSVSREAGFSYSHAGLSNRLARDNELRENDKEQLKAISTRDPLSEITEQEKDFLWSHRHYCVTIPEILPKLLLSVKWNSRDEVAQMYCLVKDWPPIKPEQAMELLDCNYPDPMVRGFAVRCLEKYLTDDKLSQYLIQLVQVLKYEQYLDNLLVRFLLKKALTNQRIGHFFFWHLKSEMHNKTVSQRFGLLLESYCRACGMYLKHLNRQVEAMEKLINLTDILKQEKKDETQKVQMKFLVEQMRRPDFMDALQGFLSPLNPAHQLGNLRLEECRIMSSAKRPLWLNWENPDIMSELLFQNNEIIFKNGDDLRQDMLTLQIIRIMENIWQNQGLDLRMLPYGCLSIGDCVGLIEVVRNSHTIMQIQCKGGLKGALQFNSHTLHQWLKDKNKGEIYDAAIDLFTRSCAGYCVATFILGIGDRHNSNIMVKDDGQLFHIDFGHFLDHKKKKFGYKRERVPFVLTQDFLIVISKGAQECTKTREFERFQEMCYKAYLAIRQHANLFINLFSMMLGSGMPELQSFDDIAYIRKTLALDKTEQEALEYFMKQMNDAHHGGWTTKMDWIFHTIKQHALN
PI3K-alpha, sequence (P27986 whole entry partner, species assumed, the tested form may be a part): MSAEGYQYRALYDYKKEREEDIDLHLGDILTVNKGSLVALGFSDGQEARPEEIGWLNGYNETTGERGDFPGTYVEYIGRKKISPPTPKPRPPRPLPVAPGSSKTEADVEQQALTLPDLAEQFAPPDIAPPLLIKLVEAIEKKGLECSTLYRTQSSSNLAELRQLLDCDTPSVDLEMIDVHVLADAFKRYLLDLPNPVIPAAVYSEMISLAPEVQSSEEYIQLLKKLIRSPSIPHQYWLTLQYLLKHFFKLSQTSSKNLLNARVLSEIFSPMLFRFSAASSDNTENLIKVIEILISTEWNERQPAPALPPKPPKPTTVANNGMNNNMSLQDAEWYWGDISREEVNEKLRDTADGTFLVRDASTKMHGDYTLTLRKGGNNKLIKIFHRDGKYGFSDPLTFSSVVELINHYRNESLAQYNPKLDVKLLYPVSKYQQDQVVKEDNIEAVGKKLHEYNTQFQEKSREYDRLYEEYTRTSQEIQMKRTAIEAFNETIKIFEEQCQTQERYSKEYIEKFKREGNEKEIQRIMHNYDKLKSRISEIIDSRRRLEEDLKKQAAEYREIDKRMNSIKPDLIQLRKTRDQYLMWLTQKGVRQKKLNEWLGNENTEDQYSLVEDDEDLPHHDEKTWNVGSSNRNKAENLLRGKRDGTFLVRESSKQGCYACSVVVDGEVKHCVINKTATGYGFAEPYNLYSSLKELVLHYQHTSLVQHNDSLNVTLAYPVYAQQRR

For `CNC(=O)Nc1ccc2c(c1)C(=O)/C(=C/c1c(-c3c(C)noc3C)n(CCN3CCN(C)CC3)c3ccc(OC)cc13)O2` [Compound 623, 1-[(2Z)-2-({2-(3,5-dimethylisoxazol-4-yl)-5-methoxy-1-[2-(4-methylpiperazin-1-yl)ethyl]-1H-indol-3-yl}methylidene)-3-oxo-2,3-dihydro-1-benzofuran-5-yl]-3-methylurea], the IC50 on PI3K-alpha (read-out: PI3Kα Avg. IC50) was determined as 8.5 nM; against PI3K-gamma (PI3Kγ Avg. IC50), 296 nM; on human TOR it was 60 nM.
The matching figures for `Cn1cc(/C=C2\Oc3cc(O)cc(O)c3C2=O)c2c(-c3cccnc3)cccc21` [Example 375, (2Z)-4,6-Dihydroxy-2-[(1-methyl-4-pyridin-3-yl-1H-indol-3-yl)methylene]-1-benzofuran-3(2H)-one]: 2810 nM, 9500 nM and 28 nM.
The matching figures for `COc1ccc2[nH]c(-c3c(C)nn(C)c3C)c(/C=C3\Oc4ccc(NC(=O)Nc5ccc(C(=O)N(C)CCN6CCCC6)cc5)cc4C3=O)c2c1` [Compound 701, 4-({[(2Z)-2-{[5-methoxy-2-(1,3,5-trimethyl-1H-pyrazol-4-yl)-1H-indol-3-yl]methylidene}-3-oxo-2,3-dihydro-1-benzofuran-5-yl]carbamoyl}amino)-N-methyl-N-(2-pyrrolidin-1-ylethyl)benzamide]: 0.3 nM, 3 nM and 1 nM.
On to `CC(=O)Nc1cccc(-c2cccc3c2c(/C=C2\Oc4cc(O)cc(O)c4C2=O)cn3C)c1` [Example 388, N-(3-{3-[(Z)-(4,6-Dihydroxy-3-oxo-1-benzofuran-2(3H)-ylidene)methyl]-1-methyl-1H-indol-4-yl}phenyl)acetamide], for which the IC50 on PI3K-alpha (read-out: PI3Kα Avg. IC50) was found to be 1350 nM; at PI3K-gamma (PI3Kγ Avg. IC50) it was 3280 nM; on human TOR, 200 nM.
Taken in the same sequence, the figures for `CNCCNC(=O)c1ccc(NC(=O)Nc2ccc3c(c2)C(=O)/C(=C/c2c(C4CCCCC4)[nH]c4ccc(OC)cc24)O3)cc1` [Compound 660, 4-[({(2Z)-2-[(2-cyclohexyl-5-methoxy-1H-indol-3-yl)methylene]-3-oxo-2,3-dihydro-1-benzofuran-5-yl}carbamoyl)amino]-N-[2-(methylamino)ethyl]benzamide] were 0.3 nM, 2.95 nM and 4 nM.
For the compound `CCn1c(C)c(/C=C2\Oc3ccc(NC(=O)Nc4ccc(OCCCNC)cc4)cc3C2=O)c2cc(OC)ccc21` [Compound 683, 1-{(2Z)-2-[(1-ethyl-5-methoxy-2-methyl-1H-indol-3-yl)methylidene]-3-oxo-2,3-dihydro-1-benzofuran-5-yl}-3-{4-[3-(methylamino)propoxy]phenyl}urea], the IC50 amounted to 1.65 nM at PI3K-alpha (read-out: PI3Kα Avg. IC50), 11 nM against PI3K-gamma (PI3Kγ Avg. IC50) and 92 nM at human TOR.
Turning to `Cn1cc(/C=C2\Oc3cc(O)cc(O)c3C2=O)c2c(-c3ccc(NC(=O)NC4CC4)cc3)cccc21` [Example 401, 1-cyclopropyl-3-(4-{3-[(Z)-(4,6-dihydroxy-3-oxo-1-benzofuran-2(3H)-ylidene)methyl]-1-methyl-1H-indol-4-yl}phenyl)urea], the figures for the IC50 at PI3K-alpha (read-out: PI3Kα Avg. IC50), on PI3K-gamma (PI3Kγ Avg. IC50) and at human TOR were 267 nM, 2680 nM and 61.5 nM, respectively.
On to `O=C1C(=Cc2c[nH]c3c(Cl)cccc23)Oc2cc(O)cc(O)c21` [Example 173, 2-[(7-chloro-1H-indol-3-yl)methylene]-4,6-dihydroxy-1-benzofuran-3(2H)-one], for which the IC50 at PI3K-alpha (read-out: PI3Kα Avg. IC50) is 766 nM; against PI3K-gamma (PI3Kγ Avg. IC50), above 10000 nM; on human TOR it was 17000 nM.
`COc1ccc2c(c1)c(/C=C1\Oc3cc(N)ccc3C1=O)cn2CCCN(C)C` [Example 418, (2Z)-6-amino-2-({1-[3-(dimethylamino)propyl]-5-methoxy-1H-indol-3-yl}methylene)-1-benzofuran-3(2H)-one]: the values for the IC50 on PI3K-alpha (read-out: PI3Kα Avg. IC50), at PI3K-gamma (PI3Kγ Avg. IC50) and at human TOR were 1380 nM, 9500 nM and 10300 nM, respectively.
Taken in the same sequence, the figures for `COc1ccc2c(c1)c(/C=C1\Oc3cc(O)cc(O)c3C1=O)c(C1CC1)n2CC(=O)N(C)C` [Example 444, 2-{2-Cyclopropyl-3-[(Z)-(4,6-dihydroxy-3-oxo-1-benzofuran-2(3H)-ylidene)methyl]-5-methoxy-1H-indol-1-yl}-N,N-dimethylacetamide] were 65.5 nM, 100 nM and 12.3 nM.
Taken in the same sequence, the figures for `COc1ccc2c(c1)c(/C=C1\Oc3cc(O)ccc3C1=O)c(C)n2CCN1CCCC1` [Example 452, (2Z)-6-Hydroxy-2-{[5-methoxy-2-methyl-1-(2-pyrrolidin-1-ylethyl)-1H-indol-3-yl]methylene}-1-benzofuran-3(2H)-one] were 49.5 nM, 990 nM and 1950 nM.
Take `COc1ccc2[nH]c(-c3c(C)nn(C)c3C)c(/C=C3\Oc4ccc(NC(=O)Nc5cccnc5)cc4C3=O)c2c1` [Compound 635, 1-[(2Z)-2-{[5-methoxy-2-(1,3,5-trimethyl-1H-pyrazol-4-yl)-1H-indol-3-yl]methylene}-3-oxo-2,3-dihydro-1-benzofuran-5-yl]-3-pyridin-3-ylurea]: the IC50 on PI3K-alpha (read-out: PI3Kα Avg. IC50) came out at 0.5 nM; against PI3K-gamma (PI3Kγ Avg. IC50) it was 2.5 nM; at human TOR, 5 nM.
As to `COc1ccc2c(c1)c(/C=C1\Oc3ccc(NC(=O)Nc4cccnc4)cc3C1=O)c(C)n2CCN1CCN(C)CC1` [Compound 632, 1-[(2Z)-2-({5-methoxy-2-methyl-1-[2-(4-methylpiperazin-1-yl)ethyl]-1H-indol-3-yl}methylidene)-3-oxo-2,3-dihydro-1-benzofuran-5-yl]-3-pyridin-3-ylurea], the IC50 was determined as 1.9 nM on PI3K-alpha (read-out: PI3Kα Avg. IC50), 246 nM at PI3K-gamma (read-out: PI3Kγ Avg. IC50) and 49 nM on human TOR.
As for `O=C1C(=Cc2c(-c3cccc(F)c3)[nH]c3ccccc23)Oc2cc(O)cc(O)c21` [Example 210, 2-{[2-(3-fluorophenyl)-1H-indol-3-yl]methylene}-4,6-dihydroxy-1-benzofuran-3(2H)-one], the IC50 on PI3K-alpha (read-out: PI3Kα Avg. IC50) is 674 nM; on PI3K-gamma (PI3Kγ Avg. IC50) it was 1480 nM; on human TOR it was 190 nM.
On to `CN(C)c1ccc(-c2cccc3c2c(/C=C2\Oc4cc(O)cc(O)c4C2=O)cn3C)cc1` [Example 385, (2Z)-2-({4-[4-(Dimethylamino)phenyl]-1-methyl-1H-indol-3-yl}methylene)-4,6-dihydroxy-1-benzofuran-3(2H)-one], for which the IC50 was found to be 2790 nM on PI3K-alpha (read-out: PI3Kα Avg. IC50), 7630 nM on PI3K-gamma (PI3Kγ Avg. IC50) and 18 nM at human TOR.
The matching figures for `CNC(=O)Nc1ccc2c(c1)C(=O)/C(=C/c1c(-c3c(C)n[nH]c3C)[nH]c3ccc(OC)cc13)O2` [Compound 625, 1-[(2Z)-2-{[2-(3,5-dimethyl-1H-pyrazol-4-yl)-5-methoxy-1H-indol-3-yl]methylidene}-3-oxo-2,3-dihydro-1-benzofuran-5-yl]-3-methylurea]: 0.2 nM, 4.7 nM and 1 nM.
The matching figures for `CCn1c(C)c(/C=C2\Oc3ccc(NC(=O)Nc4ccc(C(=O)NCCCN(C)C)cc4)cc3C2=O)c2cc(OC)ccc21` [Compound 666, N-[3-(dimethylamino)propyl]-4-[({(2Z)-2-[(1-ethyl-5-methoxy-2-methyl-1H-indol-3-yl)methylidene]-3-oxo-2,3-dihydro-1-benzofuran-5-yl}carbamoyl)amino]benzamide]: 0.8 nM, 4.5 nM and 34 nM.
The matching figures for `COc1ccc2[nH]c(-c3c(C)nn(C)c3C)c(/C=C3\Oc4ccc(NC(=O)Nc5ccc(C(=O)N6CCN(C(C)C)CC6)cc5)cc4C3=O)c2c1` [Compound 700, 1-[(2Z)-2-{[5-methoxy-2-(1,3,5-trimethyl-1H-pyrazol-4-yl)-1H-indol-3-yl]methylidene}-3-oxo-2,3-dihydro-1-benzofuran-5-yl]-3-(4-{[4-(1-methylethyl)piperazin-1-yl]carbonyl}phenyl)urea]: 0.4 nM, 3 nM and 2 nM.
Consider `CNC(=O)Nc1ccc2c(c1)C(=O)/C(=C/c1c(C3CCCCC3)[nH]c3ccc(OC)cc13)O2` [Compound 641, 1-{(2Z)-2-[(2-cyclohexyl-5-methoxy-1H-indol-3-yl)methylene]-3-oxo-2,3-dihydro-1-benzofuran-5-yl}-3-methylurea], for which the IC50 was found to be 1.6 nM on PI3K-alpha (read-out: PI3Kα Avg. IC50), 8 nM at PI3K-gamma (PI3Kγ Avg. IC50) and 10 nM at human TOR.
As to `O=C1/C(=C/c2c[nH]c3ccc(Cl)cc23)Oc2cc(O)cc(O)c21` [Example 60, (2Z)-2-[(5-chloro-1H-indol-3-yl)methylene]-4,6-dihydroxy-1-benzofuran-3(2H)-one], the IC50 amounted to 492 nM against PI3K-alpha (PI3Kα Avg. IC50), 3630 nM against PI3K-gamma (PI3Kγ Avg. IC50) and 11000 nM at human TOR.
For `COc1ccc2c(c1)c(/C=C1\Oc3cc(O)ccc3C1=O)c(C)n2CCN1CCCCCC1` [Example 470, (2Z)-2-{[1-(2-Azepan-1-ylethyl)-5-methoxy-2-methyl-1H-indol-3-yl]methylene}-6-hydroxy-1-benzofuran-3(2H)-one], the figures for the IC50 on PI3K-alpha (read-out: PI3Kα Avg. IC50), at PI3K-gamma (PI3Kγ Avg. IC50) and on human TOR were 35.5 nM, 656 nM and 2300 nM, respectively.
Take `CCn1c(C)c(/C=C2\Oc3ccc(NC(=O)Nc4ccc(C(=O)N(C)CCCN(C)C)cc4)cc3C2=O)c2cc(OC)ccc21` [Compound 657, N-[3-(dimethylamino)propyl]-4-[({(2Z)-2-[(1-ethyl-5-methoxy-2-methyl-1H-indol-3-yl)methylene]-3-oxo-2,3-dihydro-1-benzofuran-5-yl}carbamoyl)amino]-N-methylbenzamide]: the results for the half-maximal inhibitory concentration (IC50) at PI3K-alpha (read-out: PI3Kα Avg. IC50), at PI3K-gamma (PI3Kγ Avg. IC50) and on human TOR were 0.4 nM, 3.5 nM and 84 nM, respectively.
